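Protocol summary: plate cells (96-well), add compound at 5 concentrations, incubate 48 h, interpolate endpoints linearly. Definition used: TGI = concentration required for complete inhibition of growth.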

Test systems include SF-539 CNS; A549 NSCLC; KM12 colon; CAKI-1 renal; UO-31 renal; UACC-62 melanoma; IGROV1 ovarian; OVCAR-3 ovarian; OVCAR-5 ovarian; M14 melanoma.
Common to all, as to test: inhibition of tumour cell growth, NCI panel, 48 h

`CC(=O)c1cc(CC2Cc3cc4c(cc3C2=O)CCC4)cc2c1CCC2` (stereo not given): the TGI in the assay on SF-539 CNS, with A549 NSCLC, in the assay with KM12 colon, in the assay on CAKI-1 renal, with UO-31 renal and with UACC-62 melanoma was more than 100 µM each time. For the same compound, the TGI in the assay with IGROV1 ovarian, with OVCAR-3 ovarian, with OVCAR-5 ovarian and in the assay with M14 melanoma was more than 100 µM in each case.
Take `COc1ccc2nc3cc([N+](=O)[O-])ccc3c(NNc3ccc([N+](=O)[O-])cc3)c2c1`: the TGI in the assay on SF-539 CNS is more than 100 µM; in the assay with A549 NSCLC it was more than 100 µM; with KM12 colon, more than 100 µM; in the assay with CAKI-1 renal, 29.6 µM; in the assay with UO-31 renal, more than 100 µM; in the assay with UACC-62 melanoma it was more than 50.7 µM. The TGI is more than 59 µM with IGROV1 ovarian, more than 100 µM in the assay with OVCAR-3 ovarian, more than 100 µM in the assay with OVCAR-5 ovarian and more than 100 µM with M14 melanoma.
Regarding `COC(=O)CNC(=O)CNC(=O)CSc1nnc(COc2ccc(Cl)cc2)n1-c1ccccc1`, the TGI with SF-539 CNS was more than 100 µM; with A549 NSCLC, more than 100 µM; in the assay with KM12 colon it was 47.3 µM; in the assay on CAKI-1 renal, 31.7 µM; in the assay on UO-31 renal, 48.6 µM; with UACC-62 melanoma, 33.5 µM. The TGI in the assay on IGROV1 ovarian is 39.4 µM; in the assay on OVCAR-3 ovarian, 37.6 µM; in the assay with OVCAR-5 ovarian it was more than 100 µM; in the assay on M14 melanoma, more than 100 µM.
On to `CCN(CC)C(=S)/N=C(\SC(=S)N(CC)CC)c1ccccc1`, for which the TGI with SF-539 CNS is more than 100 µM; in the assay with A549 NSCLC it was more than 100 µM; in the assay on KM12 colon, more than 44.1 µM; in the assay on CAKI-1 renal, more than 100 µM; with UO-31 renal it was more than 88.2 µM; in the assay with UACC-62 melanoma, more than 100 µM. For the same compound, the TGI in the assay with IGROV1 ovarian, in the assay on OVCAR-3 ovarian, with OVCAR-5 ovarian and with M14 melanoma was more than 100 µM in each case.
Consider `CCOC(=O)NC(Nc1ccc(S(=O)(=O)Nc2ccc(OC)nn2)cc1)(C(F)(F)F)C(F)(F)F`, for which the TGI is 36.5 µM in the assay on SF-539 CNS; more than 100 µM in the assay with A549 NSCLC; more than 100 µM in the assay on KM12 colon; more than 100 µM in the assay with CAKI-1 renal; more than 100 µM with UO-31 renal; more than 100 µM with UACC-62 melanoma. Besides, the TGI in the assay on IGROV1 ovarian was 54 µM; in the assay with OVCAR-3 ovarian, 55.7 µM; in the assay with OVCAR-5 ovarian, more than 100 µM; with M14 melanoma, 50.4 µM.
`N#Cc1sc2c(c1OC(=O)c1ccc(Cl)cc1)c(=O)n(-c1ccccc1)c(=S)n2-c1ccccc1`: the TGI in the assay on SF-539 CNS is 44 µM; in the assay on A549 NSCLC, more than 100 µM; in the assay on KM12 colon it was 32.5 µM; in the assay with CAKI-1 renal, 60.3 µM; with UACC-62 melanoma it was 35.6 µM; in the assay on IGROV1 ovarian it was 40.5 µM. The TGI amounted to 64.2 µM with OVCAR-3 ovarian, 68.2 µM with OVCAR-5 ovarian and 50.8 µM with M14 melanoma.
Regarding `COc1ccc(C(OC(=O)[C@H](O[Si](C)(C)C(C)(C)C)[C@@H](NC(=O)c2ccccc2)c2ccccc2)c2ccc(OC)cc2)cc1`, the TGI in the assay on SF-539 CNS, in the assay with A549 NSCLC, in the assay on KM12 colon, in the assay with CAKI-1 renal, in the assay on UO-31 renal and with UACC-62 melanoma was more than 100 µM each time. Also, the TGI in the assay with IGROV1 ovarian, with OVCAR-3 ovarian and in the assay on OVCAR-5 ovarian was more than 100 µM in each case.
`C=C[C@]1(C)CC(=O)C(C(C)C=O)[C@]12C(=O)Oc1cccc(C)c1C2=O` (stereo not given in full): the TGI came to 31 µM in the assay on SF-539 CNS; 44.4 µM with A549 NSCLC; 28.8 µM in the assay on KM12 colon; 27.6 µM in the assay with CAKI-1 renal; 28.9 µM with UO-31 renal; 31 µM in the assay on UACC-62 melanoma. Besides, the TGI in the assay with OVCAR-3 ovarian was 29.6 µM; in the assay on OVCAR-5 ovarian, 30.6 µM; with M14 melanoma it was 29.8 µM.
As for `Cc1nn(C(=O)c2ccc(Cl)cc2)c2c1C(c1ccccc1O)SC(N)=N2` (stereo not given), the TGI with SF-539 CNS, in the assay with A549 NSCLC, with KM12 colon, in the assay with CAKI-1 renal, in the assay with UACC-62 melanoma and with IGROV1 ovarian was more than 10 µM throughout. The TGI with OVCAR-3 ovarian, in the assay with OVCAR-5 ovarian and in the assay on M14 melanoma was more than 10 µM each time.
For the compound `CCOC(CN(C)C(=O)Nc1ccc(Cl)c(Cl)c1)OCC`, the TGI with SF-539 CNS, with A549 NSCLC, in the assay on KM12 colon, with CAKI-1 renal, in the assay on UO-31 renal and in the assay with UACC-62 melanoma was more than 10 µM throughout. Further, the TGI in the assay on IGROV1 ovarian, in the assay on OVCAR-3 ovarian and with M14 melanoma was more than 10 µM each time.
For the compound `N#CC(NNC(=O)c1c(Cl)c(Cl)c(Cl)c(Cl)c1-c1nc2ccc(C(=O)c3ccccc3)cc2[nH]1)c1ccccc1` (stereo not given), the TGI is 14.5 µM in the assay on SF-539 CNS; more than 100 µM in the assay with A549 NSCLC; more than 100 µM in the assay with KM12 colon; more than 100 µM in the assay with CAKI-1 renal; more than 100 µM in the assay with UO-31 renal; more than 100 µM in the assay on IGROV1 ovarian. Moreover, the results for the TGI with OVCAR-3 ovarian, in the assay on OVCAR-5 ovarian and in the assay with M14 melanoma were 57 µM, more than 100 µM and 31.1 µM, respectively.
Turning to `COC(=O)CN=C1NC(=S)N(Cc2ccc(OC)cc2)C12CCCC2`, the TGI with SF-539 CNS, in the assay on A549 NSCLC, in the assay on KM12 colon, in the assay on CAKI-1 renal, with UO-31 renal and in the assay on UACC-62 melanoma was more than 100 µM throughout. The TGI in the assay with OVCAR-3 ovarian, in the assay with OVCAR-5 ovarian and with M14 melanoma was more than 100 µM throughout.
Consider `CC1OC(OC2C(OC(=O)[C@]34CCC(C)(C)CC3C3=CCC5[C@@]6(C)C[C@H](O)[C@H](OC7OC(COC8OC(CO)C(O)C(O)C8O)C(O)C(O)C7O)[C@@](C)(C(=O)O)C6CC[C@@]5(C)C3(C)CC4)OCC(O)C2O)C(O)C(O)C1OC1OCC(O)C(O)C1O` (stereo not given in full), for which the TGI in the assay with SF-539 CNS, with A549 NSCLC, in the assay with KM12 colon, in the assay on CAKI-1 renal, in the assay with UO-31 renal and in the assay on UACC-62 melanoma was more than 100 µM throughout. In addition, the TGI in the assay with IGROV1 ovarian, with OVCAR-3 ovarian and in the assay with OVCAR-5 ovarian was more than 100 µM throughout.
Consider `O=[N+]([O-])c1ccc(Cc2nc3cc4ccccc4cc3[nH]2)cc1C(F)(F)F`, for which the TGI in the assay with SF-539 CNS amounted to 39.1 µM; in the assay with A549 NSCLC, 64.8 µM; in the assay with KM12 colon it was 30.3 µM; in the assay on CAKI-1 renal it was 26.7 µM; in the assay with UO-31 renal, 40.4 µM; in the assay on OVCAR-3 ovarian, 26 µM. Besides, the figures for the TGI with OVCAR-5 ovarian and in the assay with M14 melanoma were 27.5 µM and 25.2 µM, respectively.

The values above are taken from PubChem BioAssay (NCI).
